According to article PMC4508061, “Selectivity Profiling and Biological Activity of Novel β-Carbolines as Potent and Selective DYRK1 Kinase Inhibitors” (PLoS ONE, 2015):

Experiments:
PC12 cells = test: Cell viability XTT assay; format: cell-based; details: PC12, up to 10 μM, 3 days
Aurora-C = Aurora-C (Homo sapiens, UniProt Q9UQB9); test: ProQinase radiometric kinase panel; details: mean of 2 exp.
CDK8/CycC = CDK8/CycC (Homo sapiens, UniProt P49336); test: ProQinase radiometric kinase panel; details: mean of 2 exp.
CDK9/CycT1 = CDK9/CycT1 (Homo sapiens, UniProt P50750); test: ProQinase radiometric kinase panel; details: mean of 2 exp.
CK2-alpha1 = CK2-alpha1 (Homo sapiens, UniProt P68400); test: ProQinase radiometric kinase panel; details: mean of 2 exp.
DAPK1 = DAPK1 (Homo sapiens, UniProt P53355); test: ProQinase radiometric kinase panel; details: mean of 2 exp.
DMPK = DMPK (Homo sapiens, UniProt Q09013); test: ProQinase radiometric kinase panel; details: mean of 2 exp.
ERK7 = ERK7 (Homo sapiens, UniProt Q8TD08); test: ProQinase radiometric kinase panel; details: mean of 2 exp.
FGR = FGR (Homo sapiens, UniProt P09769); test: ProQinase radiometric kinase panel; details: mean of 2 exp.
HIPK3 = HIPK3 (Homo sapiens, UniProt Q9H422); test: ProQinase radiometric kinase panel; details: mean of 2 exp.
HIPK4 = target: T1, HIPK4 (Homo sapiens, UniProt Q8NE63); test: ProQinase radiometric kinase panel; details: mean of 2 exp.
T1 sequence (Q8NE63 1-616): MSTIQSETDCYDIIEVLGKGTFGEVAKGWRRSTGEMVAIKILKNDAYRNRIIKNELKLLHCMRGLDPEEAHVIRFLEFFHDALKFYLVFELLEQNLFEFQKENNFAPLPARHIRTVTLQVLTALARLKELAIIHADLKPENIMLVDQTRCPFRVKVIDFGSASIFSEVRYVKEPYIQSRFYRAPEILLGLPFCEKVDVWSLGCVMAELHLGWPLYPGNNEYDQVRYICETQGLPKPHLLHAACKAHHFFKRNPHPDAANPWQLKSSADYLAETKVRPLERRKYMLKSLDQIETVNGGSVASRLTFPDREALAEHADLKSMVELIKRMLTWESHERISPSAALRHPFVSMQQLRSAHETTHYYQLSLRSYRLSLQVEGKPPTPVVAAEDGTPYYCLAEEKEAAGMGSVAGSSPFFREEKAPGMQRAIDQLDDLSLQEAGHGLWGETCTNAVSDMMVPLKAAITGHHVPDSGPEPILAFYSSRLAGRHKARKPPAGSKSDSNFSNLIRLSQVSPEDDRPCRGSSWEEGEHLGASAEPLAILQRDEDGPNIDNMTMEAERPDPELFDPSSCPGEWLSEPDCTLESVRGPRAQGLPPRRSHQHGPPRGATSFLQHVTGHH

JNK3 = JNK3 (Homo sapiens, UniProt P53779); test: ProQinase radiometric kinase panel; details: mean of 2 exp.
Protocol: Gini coefficients were calculated and the Lorenz curve (Fig 3B) was plotted by applying the Microsoft Excel spreadsheet provided by Graczyk [44].
radiometric protein kinase assays.

MAPKAPK2 = MAPKAPK2 (Homo sapiens, UniProt P49137); test: ProQinase radiometric kinase panel; details: mean of 2 exp.
MAPKAPK2, sequence (P49137 whole entry): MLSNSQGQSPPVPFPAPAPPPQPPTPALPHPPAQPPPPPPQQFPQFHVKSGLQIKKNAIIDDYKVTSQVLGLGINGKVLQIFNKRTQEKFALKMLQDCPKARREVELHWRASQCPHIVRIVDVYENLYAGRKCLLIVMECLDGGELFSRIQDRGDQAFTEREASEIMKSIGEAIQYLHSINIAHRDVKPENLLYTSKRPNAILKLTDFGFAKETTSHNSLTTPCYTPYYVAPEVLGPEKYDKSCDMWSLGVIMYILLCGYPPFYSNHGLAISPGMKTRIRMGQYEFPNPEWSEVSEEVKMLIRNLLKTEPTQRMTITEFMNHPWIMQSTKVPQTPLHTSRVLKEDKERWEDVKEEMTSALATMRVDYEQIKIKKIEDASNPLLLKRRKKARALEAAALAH

MEK2 = MEK2 (Homo sapiens, UniProt P36507); test: ProQinase radiometric kinase panel; details: mean of 2 exp.
MINK1 = MINK1 (Homo sapiens, UniProt Q8N4C8); test: ProQinase radiometric kinase panel; details: mean of 2 exp.
MKK6 (S207D/T211D) = MKK6 (S207D/T211D) (Homo sapiens, UniProt P52564, S207D/T211D); test: ProQinase radiometric kinase panel; details: mean of 2 exp.
MST1 = MST1 (Homo sapiens, UniProt Q13043); test: ProQinase radiometric kinase panel; details: mean of 2 exp.
MST3 = MST3 (Homo sapiens, UniProt Q9Y6E0); test: ProQinase radiometric kinase panel; details: mean of 2 exp.
MYLK3 = MYLK3 (Homo sapiens, UniProt Q32MK0); test: ProQinase radiometric kinase panel; details: mean of 2 exp.
MYLK3, sequence (Q32MK0 whole entry): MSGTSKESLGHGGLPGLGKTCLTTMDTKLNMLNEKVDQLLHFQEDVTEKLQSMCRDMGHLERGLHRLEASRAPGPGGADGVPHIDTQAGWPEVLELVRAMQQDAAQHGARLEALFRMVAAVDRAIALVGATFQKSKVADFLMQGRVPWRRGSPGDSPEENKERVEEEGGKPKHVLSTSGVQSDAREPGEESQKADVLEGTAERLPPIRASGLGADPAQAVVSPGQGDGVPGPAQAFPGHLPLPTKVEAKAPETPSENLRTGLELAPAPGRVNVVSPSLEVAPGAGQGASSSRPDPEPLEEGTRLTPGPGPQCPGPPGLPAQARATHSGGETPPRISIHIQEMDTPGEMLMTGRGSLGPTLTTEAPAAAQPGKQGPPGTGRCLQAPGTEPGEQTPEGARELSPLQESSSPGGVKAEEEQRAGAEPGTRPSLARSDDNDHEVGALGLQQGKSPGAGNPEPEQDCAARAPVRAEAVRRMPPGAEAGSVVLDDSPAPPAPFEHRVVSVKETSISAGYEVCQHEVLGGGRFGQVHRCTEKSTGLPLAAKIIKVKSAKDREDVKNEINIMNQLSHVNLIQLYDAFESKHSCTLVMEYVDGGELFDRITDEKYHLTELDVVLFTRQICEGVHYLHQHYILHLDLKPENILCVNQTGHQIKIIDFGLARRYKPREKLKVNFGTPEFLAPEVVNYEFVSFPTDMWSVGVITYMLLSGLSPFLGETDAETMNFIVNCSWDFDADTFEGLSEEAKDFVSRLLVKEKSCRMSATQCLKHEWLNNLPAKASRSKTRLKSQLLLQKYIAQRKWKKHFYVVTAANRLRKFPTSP

NEK2 = NEK2 (Homo sapiens, UniProt P51955); test: ProQinase radiometric kinase panel; details: mean of 2 exp.
p38-gamma = p38-gamma (Homo sapiens, UniProt P53778); test: ProQinase radiometric kinase panel; details: mean of 2 exp.
p38-gamma, sequence (P53778 whole entry): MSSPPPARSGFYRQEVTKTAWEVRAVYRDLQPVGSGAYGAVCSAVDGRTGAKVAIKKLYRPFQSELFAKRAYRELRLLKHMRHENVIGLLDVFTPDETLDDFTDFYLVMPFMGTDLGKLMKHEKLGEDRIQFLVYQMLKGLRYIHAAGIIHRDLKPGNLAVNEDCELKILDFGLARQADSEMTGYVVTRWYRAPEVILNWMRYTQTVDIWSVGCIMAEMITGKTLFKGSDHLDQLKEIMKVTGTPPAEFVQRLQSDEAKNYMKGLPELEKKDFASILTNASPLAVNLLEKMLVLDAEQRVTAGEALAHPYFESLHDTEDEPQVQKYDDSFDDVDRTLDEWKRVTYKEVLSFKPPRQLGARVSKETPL

PDGFR-alpha = PDGFR-alpha (Homo sapiens, UniProt P16234); test: ProQinase radiometric kinase panel; details: mean of 2 exp.
PDGFR-alpha, sequence (P16234 24-1089): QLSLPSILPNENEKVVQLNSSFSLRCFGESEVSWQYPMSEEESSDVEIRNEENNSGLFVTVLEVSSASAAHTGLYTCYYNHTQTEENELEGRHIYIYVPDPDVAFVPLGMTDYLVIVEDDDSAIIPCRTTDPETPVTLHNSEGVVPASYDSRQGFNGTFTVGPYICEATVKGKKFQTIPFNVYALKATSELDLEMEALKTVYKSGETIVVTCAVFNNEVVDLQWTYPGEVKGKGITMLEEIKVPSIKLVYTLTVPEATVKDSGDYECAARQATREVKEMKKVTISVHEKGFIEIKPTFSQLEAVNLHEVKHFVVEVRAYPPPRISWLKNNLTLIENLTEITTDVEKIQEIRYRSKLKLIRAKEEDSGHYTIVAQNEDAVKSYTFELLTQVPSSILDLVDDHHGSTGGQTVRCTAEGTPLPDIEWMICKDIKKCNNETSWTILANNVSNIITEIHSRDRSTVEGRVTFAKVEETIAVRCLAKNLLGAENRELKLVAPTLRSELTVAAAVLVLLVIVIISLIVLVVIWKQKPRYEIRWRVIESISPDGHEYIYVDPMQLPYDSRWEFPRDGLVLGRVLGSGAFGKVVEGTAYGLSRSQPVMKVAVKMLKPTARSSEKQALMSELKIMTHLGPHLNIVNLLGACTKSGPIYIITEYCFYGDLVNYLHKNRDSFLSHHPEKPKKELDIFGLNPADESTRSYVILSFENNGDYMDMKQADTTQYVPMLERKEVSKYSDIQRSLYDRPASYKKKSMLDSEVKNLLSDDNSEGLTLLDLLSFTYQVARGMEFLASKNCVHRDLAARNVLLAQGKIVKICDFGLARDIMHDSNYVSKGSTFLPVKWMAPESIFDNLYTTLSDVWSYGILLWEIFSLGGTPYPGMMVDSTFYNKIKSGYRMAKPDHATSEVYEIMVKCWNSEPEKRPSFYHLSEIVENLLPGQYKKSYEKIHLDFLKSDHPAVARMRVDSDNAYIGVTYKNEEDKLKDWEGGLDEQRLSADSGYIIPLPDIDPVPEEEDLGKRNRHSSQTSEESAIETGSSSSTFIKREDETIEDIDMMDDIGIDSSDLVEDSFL

PKC-epsilon = PKC-epsilon (Homo sapiens, UniProt Q02156); test: ProQinase radiometric kinase panel; details: mean of 2 exp.
RIPK2 = RIPK2 (Homo sapiens, UniProt O43353); test: ProQinase radiometric kinase panel; details: mean of 2 exp.
RPS6KA4 = RPS6KA4 (Homo sapiens, UniProt O75676); test: ProQinase radiometric kinase panel; details: mean of 2 exp.
SLK = SLK (Homo sapiens, UniProt Q9H2G2); test: ProQinase radiometric kinase panel; details: mean of 2 exp.
SYK = SYK (Homo sapiens, UniProt P43405); test: ProQinase radiometric kinase panel; details: mean of 2 exp.
TBK1 = TBK1 (Homo sapiens, UniProt Q9UHD2); test: ProQinase radiometric kinase panel; details: mean of 2 exp.
TSK2 = TSK2 (Homo sapiens, UniProt Q96PF2); test: ProQinase radiometric kinase panel; details: mean of 2 exp.
TSSK1 = TSSK1 (Homo sapiens, UniProt Q9BXA7); test: ProQinase radiometric kinase panel; details: mean of 2 exp.
TSSK1, sequence (Q9BXA7 whole entry): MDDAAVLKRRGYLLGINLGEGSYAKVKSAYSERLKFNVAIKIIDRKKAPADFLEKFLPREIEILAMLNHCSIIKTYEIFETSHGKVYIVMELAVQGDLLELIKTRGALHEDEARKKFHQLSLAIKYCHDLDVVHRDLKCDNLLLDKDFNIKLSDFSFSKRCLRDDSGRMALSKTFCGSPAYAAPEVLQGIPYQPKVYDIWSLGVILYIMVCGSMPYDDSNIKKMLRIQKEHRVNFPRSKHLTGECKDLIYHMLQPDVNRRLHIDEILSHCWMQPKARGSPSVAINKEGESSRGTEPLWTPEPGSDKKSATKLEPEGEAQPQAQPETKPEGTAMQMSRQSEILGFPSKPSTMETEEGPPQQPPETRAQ

WNK3 = WNK3 (Homo sapiens, UniProt Q9BYP7); test: ProQinase radiometric kinase panel; details: mean of 2 exp.
WNK3, sequence (Q9BYP7 whole entry): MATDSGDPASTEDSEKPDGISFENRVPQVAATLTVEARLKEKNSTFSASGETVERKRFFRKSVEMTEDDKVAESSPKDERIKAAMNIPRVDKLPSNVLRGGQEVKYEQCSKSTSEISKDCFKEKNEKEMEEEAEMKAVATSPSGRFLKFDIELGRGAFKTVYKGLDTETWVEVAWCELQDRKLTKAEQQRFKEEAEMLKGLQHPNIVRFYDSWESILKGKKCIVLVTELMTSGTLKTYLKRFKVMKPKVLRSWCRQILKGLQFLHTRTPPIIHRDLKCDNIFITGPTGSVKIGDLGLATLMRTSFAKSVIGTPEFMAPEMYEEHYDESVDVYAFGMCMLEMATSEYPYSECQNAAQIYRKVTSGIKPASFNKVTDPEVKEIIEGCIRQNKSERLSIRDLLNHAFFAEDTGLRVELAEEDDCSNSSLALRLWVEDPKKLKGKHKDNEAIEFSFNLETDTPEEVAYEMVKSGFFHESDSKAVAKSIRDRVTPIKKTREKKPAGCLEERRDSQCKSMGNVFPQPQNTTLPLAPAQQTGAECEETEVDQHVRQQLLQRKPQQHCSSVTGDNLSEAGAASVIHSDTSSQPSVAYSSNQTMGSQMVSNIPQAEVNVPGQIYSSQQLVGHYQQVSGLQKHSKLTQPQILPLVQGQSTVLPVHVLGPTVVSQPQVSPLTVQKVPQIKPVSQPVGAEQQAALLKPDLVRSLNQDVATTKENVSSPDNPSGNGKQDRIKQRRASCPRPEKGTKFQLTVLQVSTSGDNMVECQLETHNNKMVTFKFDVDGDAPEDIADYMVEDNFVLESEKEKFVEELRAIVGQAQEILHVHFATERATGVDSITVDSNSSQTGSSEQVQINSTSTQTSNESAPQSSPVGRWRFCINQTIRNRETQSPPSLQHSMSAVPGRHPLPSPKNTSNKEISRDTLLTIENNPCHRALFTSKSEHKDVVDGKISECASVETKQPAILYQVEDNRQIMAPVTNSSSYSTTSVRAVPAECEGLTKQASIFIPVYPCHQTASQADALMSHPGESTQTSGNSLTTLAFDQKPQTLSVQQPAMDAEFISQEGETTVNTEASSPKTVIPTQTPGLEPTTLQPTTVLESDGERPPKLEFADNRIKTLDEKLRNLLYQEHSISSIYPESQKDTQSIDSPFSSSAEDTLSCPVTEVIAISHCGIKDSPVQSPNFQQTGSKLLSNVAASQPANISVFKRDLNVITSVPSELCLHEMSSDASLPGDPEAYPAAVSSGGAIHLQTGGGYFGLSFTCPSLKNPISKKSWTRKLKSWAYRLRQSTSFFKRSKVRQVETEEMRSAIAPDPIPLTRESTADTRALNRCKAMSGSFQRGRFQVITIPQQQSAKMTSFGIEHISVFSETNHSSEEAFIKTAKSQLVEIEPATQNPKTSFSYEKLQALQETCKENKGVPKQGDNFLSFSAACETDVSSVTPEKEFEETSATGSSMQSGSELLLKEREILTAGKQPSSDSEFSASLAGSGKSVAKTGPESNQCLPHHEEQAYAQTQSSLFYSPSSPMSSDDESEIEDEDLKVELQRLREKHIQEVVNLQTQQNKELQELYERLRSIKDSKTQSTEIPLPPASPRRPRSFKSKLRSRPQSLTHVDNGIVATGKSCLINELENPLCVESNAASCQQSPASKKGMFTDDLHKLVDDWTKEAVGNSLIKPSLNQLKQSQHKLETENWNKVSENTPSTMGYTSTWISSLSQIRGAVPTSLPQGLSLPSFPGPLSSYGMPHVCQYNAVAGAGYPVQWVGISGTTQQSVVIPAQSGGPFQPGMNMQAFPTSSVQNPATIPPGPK

YES = YES (Homo sapiens, UniProt P07947); test: ProQinase radiometric kinase panel; details: mean of 2 exp.

With `COc1ccc2c3ccnc(Cl)c3n(CC#N)c2c1` [AnnH75] the “cytotoxicity” value (PC12 cells) was “minimal cytotoxicity”, the “residual activity at 1 µM, Mean” value (Aurora-C) was 97 % of control and the “residual activity at 1 µM, Mean” value (CDK8/CycC) was 18 % of control. For the same compound, the “residual activity at 1 µM, Mean” value (CDK9/CycT1) was 85 % of control, the “residual activity at 1 µM, Mean” value (CK2-alpha1) was 96 % of control and the “residual activity at 1 µM, Mean” value (DAPK1) was 91 % of control. The “residual activity at 1 µM, Mean” value (DMPK) was 101 % of control, the “residual activity at 1 µM, Mean” value (ERK7) was 59 % of control and the “residual activity at 1 µM, Mean” value (FGR) was 101 % of control. For the same compound, the “residual activity at 1 µM, Mean” value (HIPK3) was 88 % of control, the “residual activity at 1 µM, Mean” value (HIPK4) was 88 % of control and the “residual activity at 1 µM, Mean” value (JNK3) was 82 % of control. The “residual activity at 1 µM, Mean” value (MAPKAPK2) was 85 % of control, the “residual activity at 1 µM, Mean” value (MEK2) was 37 % of control and the “residual activity at 1 µM, Mean” value (MINK1) was 92 % of control. For the same compound, the “residual activity at 1 µM, Mean” value (MKK6 (S207D/T211D)) was 100 % of control, the “residual activity at 1 µM, Mean” value (MST1) was 91 % of control and the “residual activity at 1 µM, Mean” value (MST3) was 104 % of control. The “residual activity at 1 µM, Mean” value (MYLK3) was 94 % of control, the “residual activity at 1 µM, Mean” value (NEK2) was 90 % of control and the “residual activity at 1 µM, Mean” value (p38-gamma) was 86 % of control. For the same compound, the “residual activity at 1 µM, Mean” value (PDGFR-alpha) was 102 % of control, the “residual activity at 1 µM, Mean” value (PKC-epsilon) was 39 % of control and the “residual activity at 1 µM, Mean” value (RIPK2) was 94 % of control. For the same compound, the “residual activity at 1 µM, Mean” value (RPS6KA4) was 95 % of control, the “residual activity at 1 µM, Mean” value (SLK) was 99 % of control and the “residual activity at 1 µM, Mean” value (SYK) was 101 % of control. For the same compound, the “residual activity at 1 µM, Mean” value (TBK1) was 94 % of control, the “residual activity at 1 µM, Mean” value (TSK2) was 92 % of control and the “residual activity at 1 µM, Mean” value (TSSK1) was 85 % of control. For the same compound, the “residual activity at 1 µM, Mean” value (WNK3) was 94 % of control and the “residual activity at 1 µM, Mean” value (YES) was 83 % of control.
